According to patent US5129951A, “Aromatic aldehydes and alcohols as potato tuber sprout inhibitors” (priority 1991, dated 1992):
“Also recorded” adds a separate entry of the source. Like-named read-outs stand apart in the source and are kept apart here.

What was measured:
[1] = Theoretical saturated headspace concentration calculated from known vapor pressures; format: physicochemical; details: calculated from known vapor pressures by Ideal Gas Law
Procedure: Because these compounds were difficult to quantitate by gas chromatography at the concentration levels in saturated headspaces, theoretical saturated concentrations were calculated by converting known vapor pressures of each compound at 25° C. to molar concentrations using the Ideal Gas Law, […], where n/V is the molar concentration, P is the partial pressure (atm), R is the Ideal Gas constant (0.0821 l atm/mol ° K.), and T is the temperature (° K.).

[2] = test system: potato tubers; experiment: Sprout inhibition of tubers exposed to compounds in headspace gas for 7 days (Example 1); format: in vivo, Solanum tuberosum L. cv `Norchip`; details: 7 days in saturated headspace gas, 25° C.; for % Eyes Sprouted: dark, control 100, LSD (0.05) 12
[3] = test system: fungi; experiment: Fungal growth on tubers exposed to compounds in headspace gas for 7 days (Example 1); format: in vivo; details: 7 days in saturated headspace gas, 25° C.; for Fungal Growth: control ++; for Fungal growth: key: -: no fungi visible; +: = some fungi; ++: heavy fungal growth
Text: (control flasks lacked any compounds).

[4] = test system: plants; details: Putnam and Tang; cited from earlier work
[5] = cited from earlier work; for Temperature at Which Vapor Pressure Equals 1 mm Hg: vapor pressure 1 mm Hg
[6] = test system: potato tubers; experiment: Tuber texture/quality after exposure to compounds in headspace gas for 7 days (Example 1); details: 7 days in saturated headspace gas, 25° C.
[7] = test system: potato tubers; experiment: Tuber sprouting after removal from exposure to volatilized aromatics for 1, 2, 4, 7 or 10 days (Example 2); format: in vivo, Solanum tuberosum L. cv `Norchip`; details: 14 days after removal; for % Eyes Sprouted: 25° C., LSD (0.05) 24
Procedure: (§1) Each treatment consisted of placing the tubers in sealed 9.2 l flasks containing excess levels of the treatment compounds at 25° C. as in Example 1. Three tubers were then removed from each treatment after 1, 2, 4, 7, and 10 days, and placed in flasks containing fresh humidified air (free of any additional volatilized compounds) at 25° C. Control tubers were placed in sealed flasks lacking any added compounds and three were removed after 1 and 10 days. Fourteen days after removal from the sealed flasks containing treatment compounds, all tubers were examined for percentage of eyes sprouted, tuber texture, and fungal growth. Each treatment was replicated once and each experiment was repeated once.

[8] = test system: fungi; experiment: Fungal growth on tubers after removal from exposure to volatilized aromatics (Example 2); format: in vivo; details: 14 days after removal
Procedure: as §1

[9] = test system: potato tubers; experiment: Tuber texture after removal from exposure to volatilized aromatics (Example 2); format: in vivo, Solanum tuberosum L. cv `Norchip`
Procedure: as §1

[10] = test system: potato tubers; experiment: Tuber sprouting 14 days after direct application of aromatic compounds (Example 3); format: in vivo, Solanum tuberosum L. cv `Norchip`; details: for % Eyes Sprouted: 25° C., control 98, LSD (0.05) 14
[11] = test system: fungi; experiment: Fungal growth 14 days after direct application of aromatic compounds (Example 3); format: in vivo
[12] = test system: potato tubers; experiment: Tuber sprouting after removal from exposure to volatilized aromatics for 1, 2, 4, 7 or 10 days (Example 2); format: in vivo, Solanum tuberosum L. cv `Norchip`; details: exposure for 10 days, 75 days after removal
[13] = test system: potato tubers; experiment: Tuber texture and quality 14 days after direct application of aromatic compounds (Example 3)
[14] = test system: potato tubers; details: in vivo
[15] = test system: potato tubers; details: in vivo; remark: listed apart in the source

O=C(O)c1ccccc1 [Benzoic acid]
Concentration of Saturated Headspace at 25° C. [1]: 0.1 µM | effect on tuber sprouting [2]: no significant effect on tuber sprouting; also recorded: little or no inhibition of sprouting | % Eyes Sprouted [2]: 98% | effect on fungal growth [3]: present to some extent | Fungal Growth [3]: + | reported allelopathy [4]: allelopathic | Temperature at Which Vapor Pressure Equals 1 mm Hg [5]: 96.0 °C | tuber condition [6]: soft to the touch

O=Cc1ccccc1 [Benzaldehyde]
Concentration of Saturated Headspace at 25° C. [1]: 48 µM | effect on tuber sprouting [2]: completely inhibited sprouting | % Eyes Sprouted [2]: 0% | effect on fungal growth [3]: prevented any visible fungal growth | Fungal Growth [3]: - | % Eyes Sprouted ([7]; 1 day exposure, control 96): 88% | % Eyes Sprouted ([7]; 2 days exposure): 42% | % Eyes Sprouted ([7]; 4 days exposure): 14% | % Eyes Sprouted ([7]; 7 days exposure): 2% | % Eyes Sprouted ([7]; 10 days exposure, control 100): 0% | inhibition of tuber sprouting ([7]; exposure for 7 or fewer days): did not completely inhibit sprouting | inhibition of tuber sprouting ([7]; exposure for 10 days): completely inhibited sprouting | Fungal Growth ([8]; 1 day exposure, control +): - | Fungal Growth ([8]; 2 days exposure): - | Fungal Growth ([8]; 4 days exposure): - | Fungal Growth ([8]; 7 days exposure): - | Fungal Growth ([8]; 10 days exposure, control +): - | tuber firmness ([9]; 1 day treatment, 14 days after removal): slightly soft | % Eyes Sprouted ([10]; 1% emulsion (dip)): 43% | inhibition of sprouting ([10]; 10% emulsion): completely inhibited sprouting without damaging the potato tubers | % Eyes Sprouted ([10]; 10% emulsion (dip)): 0% | % Eyes Sprouted ([10]; 100% (pure, sprayed)): 0% | Fungal Growth ([11]; 10% emulsion): heavily covered with fungal growth | Fungal Growth ([11]; 10% emulsion (dip), control +): ++ | Fungal Growth ([11]; 100% (pure, sprayed), control +): ++ | sprouting [12]: remained unsprouted | Temperature at Which Vapor Pressure Equals 1 mm Hg [5]: 26.2 °C | Solubility in Water at 25° C. [5]: sl. soluble | tuber condition [6]: firm and appeared healthy | tuber condition ([13]; 10% emulsion): remained hard, with no necrosis or surface pitting | Tuber Texture ([13]; 100% (pure, sprayed), control SS): S,N

COc1cc(C=O)ccc1O [Vanillin]
Concentration of Saturated Headspace at 25° C. [1]: 0.1 µM | effect on tuber sprouting [2]: only slightly suppressed sprouting; also recorded: little or no inhibition of sprouting | % Eyes Sprouted [2]: 87% | effect on fungal growth [3]: present to some extent | Fungal Growth [3]: + | reported allelopathy [4]: allelopathic | Temperature at Which Vapor Pressure Equals 1 mm Hg [5]: 107.0 °C | Solubility in Water at 25° C. [5]: sl. soluble

Cc1ccc(C(C)C)c(O)c1 [Thymol]
Concentration of Saturated Headspace at 25° C. [1]: 2.9 µM | effect on tuber sprouting [2]: completely inhibited sprouting | % Eyes Sprouted [2]: 0% | effect on fungal growth [3]: prevented any visible fungal growth | Fungal Growth [3]: - | % Eyes Sprouted ([7]; 1 day exposure, control 96): 83% | % Eyes Sprouted ([7]; 2 days exposure): 60% | % Eyes Sprouted ([7]; 4 days exposure): 44% | % Eyes Sprouted ([7]; 7 days exposure): 6% | % Eyes Sprouted ([7]; 10 days exposure, control 100): 0% | inhibition of tuber sprouting ([7]; exposure for 7 or fewer days): did not completely inhibit sprouting | inhibition of tuber sprouting ([7]; exposure for 10 days): completely inhibited sprouting | Fungal Growth ([8]; 7 days exposure): - | Fungal Growth ([8]; 10 days exposure, control +): - | tuber firmness ([9]; in vivo): slightly soft | inhibition of sprouting ([10]; 1% emulsion): suppressed sprouting | % Eyes Sprouted ([10]; 1% emulsion (dip)): 0% | % Eyes Sprouted ([10]; 10% emulsion (dip)): 0% | Fungal Growth ([11]; 1% emulsion (dip), control +): - | Fungal Growth ([11]; 10% emulsion (dip), control +): - | tuber condition [14]: large pitted areas on the tuber surface near each eye | tuber condition [6]: firm and appeared healthy

CC=Cc1ccc(O)c(OC)c1 [Isoeugenol]
Concentration of Saturated Headspace at 25° C. [1]: 1.3 µM | effect on tuber sprouting [2]: no significant effect on tuber sprouting | % Eyes Sprouted [2]: 89% | effect on fungal growth [3]: especially heavy growth | Fungal Growth [3]: ++ | tuber condition [15]: remained firm

OCC=Cc1ccccc1 [Cinnamyl alcohol]
Concentration of Saturated Headspace at 25° C. [1]: 2.4 µM | effect on tuber sprouting [2]: no significant effect on tuber sprouting | % Eyes Sprouted [2]: 91% | effect on fungal growth [3]: present to some extent | Fungal Growth [3]: + | tuber condition [15]: slightly soft | Solubility in Water at 25° C. [5]: soluble
